Consider nine compounds from paper PMC11268729 (Journal of hepatology, 2023).

Data set [1] deals with PaDLOCs. Nature of the data set: PaDLOC confocal imaging. The data set is classed as cell-based, human. Particulars: for UMAP morphological clustering: PaDLOCs, CellProfiler cell-level features; for morphological deviation: monotherapy 500 nM.
For data set [2], the system named is PHH PaDLOCs. Nature of the data set: PHH liver-chip ALT/AST release and albumin production. Format: cell-based, human. Particulars: PHH on chip; APAP and FIAU.
Data set [3] concerns PaDLOCs. As to the kind of experiment: PaDLOC. Format: cell-based, human. Particulars: for albumin production: across 7 days; for ALT or AST release: monotherapy 500 nM.
For data set [4], the system named is 72.3-derived HLOs. Nature of the data set: Morphological cell profiling. The data set is classed as cell-based, human. Particulars: for phenotypic cluster (UMAP/HDBScan): cells treated at respective IC50, 72.3-derived HLOs.
Data set [5] concerns PaDLOCs. As to the kind of experiment: scRNA-seq differential expression in hepatocytes of drug-treated PaDLOCs. Particulars: fialuridine 10 μM, tenofovir 500 nM; for KCNQ10T1 expression / RPS10 expression: compared to control; for DGAT1 expression: tenofovir-inarigivir 250 + 250 nM. Format: cell-based, human.
Data set [6] has as its system PaDLOCs. As to the kind of experiment: Metabolic turnover of CYP substrates in PaDLOCs. Particulars: PaDLOCs vs plate-cultured intact HLOs; slightly lower rates than PHHs.
Data set [7] concerns dispersed HLOs. Nature of the data set: Dispersed HLOs in 384-well plates, cell viability counts by high-content imaging. The data set is classed as cell-based, human. The following applies: for cytotoxicity: monotherapies up to concentration of 100 μM, 120 hrs.
Data set [8] has as its system patients. The following applies: monotherapy, two clinical trials for HBV; cited from earlier work.
The conditions of data set [9]: in vivo; cited from earlier work.
Setting [10] is: single agents 500 nM, combination 250 + 250 nM.

Molecules are shown by their SMILES. Entries after “also recorded” stand apart in the source; their conditions may differ.

Regarding `O=c1[nH]c(=O)n([C@@H]2O[C@H](CO)[C@@H](O)[C@@H]2F)cc1I` [FIAU, fialuridine], the “confocal phenotype (CellMask, lipid droplets)” value in [1] (APAP 100 μM, FIAU 10 μM, day 7 of treatment) was “high lipid content and a reduction of CellMask staining”. Further, in data set [2], the “ALT/AST release and reduced albumin production” value is listed as “not significant”. Besides, the albumin production entry in [3] (APAP 100 μM, FIAU 10 μM) is “diminished”. Further, in data set [4] (sub-cytotoxic concentrations, Fig. S5 B-C), the “multidimensional perturbation of cells” value is “diminished mitochondrial mass and lipid accumulation”. Also, in data set [5], the KCNQ10T1 expression result is given as “overexpression”, the RPS10 expression entry is recorded as “suppressed expression”, the GSTP1 expression result was “decreased expression” and the DGAT1 expression entry is given as “downregulated”.
In the case of `Oc1ncnc2[nH]ncc12` [allopurinol], the “phenotypic cluster (UMAP/HDBScan)” value in data set [4] is “Cluster α; also recorded: Cluster γ”.
On to `O=P1(N(CCCl)CCCl)NCCCO1` (stereo not shown) [cyclophosphamide], for which, in [6], the metabolic turnover rate result is on record as “increased rates compared to plate-cultured intact HLOs”.
`CO[C@@H]1[C@H](OP(=O)(OC[C@H]2O[C@@H](n3cnc4c(N)ncnc43)C[C@@H]2O)SCOC(=O)OC(C)C)[C@@H](CO)O[C@H]1n1ccc(=O)[nH]c1=O` (stereo partly shown) [inarigivir soproxil]: in [1], the UMAP morphological clustering entry is on record as “clustered with DMSO control” and the morphological deviation result is given as “no morphological deviation from DMSO-treated control”. Besides, the “ALT or AST release” value in data set [3] is recorded as “did not increase ALT or AST release”. Also, the albumin production result in data set [3] (setting [10]) is recorded as “no effect was observed”. Further, the cytotoxicity result in data set [7] was “negligible cytotoxicity”. The “toxicity in clinical trials” value in data set [8] is “no clear signs of toxicity”.
As for `CO[C@H]1/C=C/O[C@@]2(C)Oc3c(C)c(O)c4c(O)c(c(/C=N/N5CCN(C)CC5)c(O)c4c3C2=O)NC(=O)/C(C)=C\C=C\[C@H](C)[C@H](O)[C@@H](C)[C@@H](O)[C@@H](C)[C@H](OC(C)=O)[C@@H]1C` [rifampin], the “phenotypic cluster (UMAP/HDBScan)” value in data set [4] is “Cluster γ”.
For orientation: Cmax means the highest concentration seen after dosing. In the case of `C[C@H](Cn1cnc2c(N)ncnc21)OCP(=O)(O)O` [tenofovir], in data set [1], the UMAP morphological clustering entry is listed as “clustered with DMSO control” and the morphological deviation entry is reported as “no morphological deviation from DMSO-treated control”. For the same compound, in [3], the “ALT or AST release” value is on record as “did not increase ALT or AST release”. For the same compound, in data set [3] (setting [10]), the albumin production result is listed as “no effect was observed”. In addition, the cytotoxicity entry in data set [7] is “negligible cytotoxicity”. Also, the Cmax in data set [9] is about 500 nM. In addition, in data set [5], the KCNQ10T1 expression result was “overexpression”, the RPS10 expression entry is reported as “suppressed expression”, the GSTP1 expression entry is listed as “decreased expression” and the DGAT1 expression entry is given as “downregulated”.
For `Cc1ccnc2c1NC(=O)c1cccnc1N2C1CC1` [nevirapine], the “phenotypic cluster (UMAP/HDBScan)” value in data set [4] was “Cluster γ”. Further, the “IC50 relative to reported Cmax in patients” value in [7] (72.3 derived HLOs, Cmax ref 53) is reported as “over double that of reported Cmax”.
For the compound `CC(=O)Nc1ccc(O)cc1` [APAP, acetaminophen], in data set [1], the UMAP morphological clustering result is reported as “unique cluster”. For the same compound, in data set [6], the metabolic turnover rate result is “increased rates compared to plate-cultured intact HLOs”. The “ALT/AST release and reduced albumin production” value in data set [2] is reported as “not significant”. In data set [3] (APAP 100 μM, FIAU 10 μM), the albumin production entry is “diminished”.
Consider `Nc1nc2nc[nH]c2c(=S)[nH]1` [thioguanine], for which, in data set [4], the “phenotypic cluster (UMAP/HDBScan)” value is “Cluster α”.
